Here are results for five molecules from patent US12466840B2, “Small molecule inhibitors of KRAS proteins” (Merck Sharp & Dohme LLC, priority 2023, dated 2025).

Series [1] in a line: Dog IV/PO pharmacokinetic studies. The following applies: for F % / bioavailability: oral bioavailability, PO 0.5 mg/kg vs. IV; for CLp / MRT / Vd / clearance / bioavailability: plasma; for CLp / MRT / Vd / clearance: IV 0.25 mg/kg (Ex-2 0.05 mg/kg); for clearance: read-out: CLp. In kind it is in vivo. The protocol: Procedure for Dog IV/PO Pharmacokinetic Studies
Plasma pharmacokinetic parameters for clearance, volume of distribution, half-life, mean residence time (MRT) and oral bioavailability were determined in dogs from oral administration and IV administration studies. 4 male dogs, typically weighing 8-12 kg, were fasted overnight prior to dosing. IV formulation was administered to 2 dogs via the saphenous or cephalic vein, and oral dosing was administered to 2 dogs via oral gavage. Blood was collected by the cephalic or jugular vein, typically at predose, 2, 8, 15, 30 min, 1, 2, 4, 6, 8 and 24 h postdose for IV, and at predose, 15, 30 min, 1, 2, 4, 6, 8, and 24 hr for oral dosing. Samples were collected in K2EDTA tubes, stored on ice, and centrifuged. Plasma was transferred to a micro titer plate and stored at −70° C. until analysis. Plasma samples were extracted using protein precipitation and analyzed by liquid chromatography separation followed by mass spec detection (LC-MS/MS), using a standard curve for each compound. Plasma pharmacokinetic parameters were calculated for IV and oral dosing data by non-compartmental methods. Oral bioavailability was determined as the ratio of the dose-normalized plasma area under the curve (AUC) following oral dosing vs. IV dosing.

Series [2] in a line: Dog IV cassette pharmacokinetic studies. Particulars: plasma, IV cassette 0.05 mg/kg. In kind it is in vivo. As to the method: Procedure for Dog IV Cassette Pharmacokinetic Studies
Plasma pharmacokinetic parameters for clearance, volume of distribution, half-life, and mean residence time (MRT) were determined in dogs from IV cassette administration studies. 2 male dogs, typically weighing 8-12 kg, were fasted overnight prior to dosing. IV formulation was administered to 2 dogs via the saphenous or cephalic vein. Blood was collected by the cephalic or jugular vein, typically at predose, 2, 8, 15, 30 min, 1, 2, 4, 6, 8 and 24 h postdose. Samples were collected in K2EDTA tubes, stored on ice, and centrifuged. Plasma was transferred to a micro titer plate and stored at −70° C. until analysis. Plasma samples were extracted using protein precipitation and analyzed by liquid chromatography separation followed by mass spec detection (LC-MS/MS), using a standard curve for each compound. Plasma pharmacokinetic parameters were calculated by non-compartmental methods.

Molecules are shown by their SMILES.

The term MRT denotes the average time that molecules of a dose stay in the body. In series [1], `F/C=C1/CN2CCC[C@@]2(COc2nc3c4c(nc(-c5c(C6CC6)c(Cl)cc6[nH]ncc56)c(F)c4n2)OC[C@@H]2COCCCN32)C1` [Ex-1, (8aS)-5-(6-chloro-5-cyclopropyl-1H-indazol-4-yl)-4-fluoro-2-(((S,Z)-2-(fluoromethylene)tetrahydro-1H-pyrrolizin-7a(5H)-yl)methoxy)-8a,9,12,13-tetrahydro-8H,11H-7,10-dioxa-1,3,6,13a-tetraazanaphtho[1,8-ab]heptalene] showed a F % of 17%, a CLp of 5.0 mL/min/kg, an MRT of 2.2 h and a Vd of 0.65 L/kg.
In series [1], `CCc1c(F)ccc2cc3[nH]ncc3c(-c3nc4c5c(nc(OC[C@@]67CCCN6C[C@H](F)C7)nc5c3F)N3CCCOC[C@H]3CO4)c12` [Ex-2, (8aS)-5-(5-ethyl-6-fluoro-1H-benzo[f]indazol-4-yl)-4-fluoro-2-(((2R,7aS)-2-fluorotetrahydro-1H-pyrrolizin-7a(5H)-yl)methoxy)-8a,9,12,13-tetrahydro-8H,11H-7,10-dioxa-1,3,6,13a-tetraazanaphtho[1,8-ab]heptalene] yielded a F % of 29%, a CLp of 18 mL/min/kg, an MRT of 2.4 h and a Vd of 2.6 L/kg.
In general, bioavailability refers to the share of a dose that reaches the circulation, judged against a reference dose that is usually intravenous. With `Fc1c(-c2c(C3CC3)c(Cl)cc3[nH]ncc23)nc2c3c(nc(OC[C@@]45CCCN4C[C@H](F)C5)nc13)N1CCCOC[C@H]1CO2` [Ex-3, (8aS)-5-(6-chloro-5-cyclopropyl-1H-indazol-4-yl)-4-fluoro-2-(((2R,7aS)-2-fluorotetrahydro-1H-pyrrolizin-7a(5H)-yl)methoxy)-8a,9,12,13-tetrahydro-8H,11H-7,10-dioxa-1,3,6,13a-tetraazanaphtho[1,8-ab]heptalene], in series [1] (male), the clearance is 10 mL/min/kg and the bioavailability came out at 15%. Also, the MRT in series [1] (male, read-out: MRT) is 3.6 h. Besides, the Vd in series [1] (male, read-out: Vd) was 2.2 L/kg.
Consider `CCc1c(F)ccc2cc3[nH]nc(C)c3c(-c3nc4c5c(nc(OC[C@@]67CCCN6C[C@H](F)C7)nc5c3F)N3CCCOC[C@H]3CO4)c12` [Ex-6, (8aS)-5-(5-ethyl-6-fluoro-3-methyl-1H-benzo[f]indazol-4-yl)-4-fluoro-2-(((2R,7aS)-2-fluorotetrahydro-1H-pyrrolizin-7a(5H)-yl)methoxy)-8a,9,12,13-tetrahydro-8H,11H-7,10-dioxa-1,3,6,13a-tetraazanaphtho[1,8-ab]heptalene], for which, in series [1] (male), the clearance stood at 8 mL/min/kg and the bioavailability was determined as 59%. Moreover, in series [1] (male, read-out: MRT), the MRT turned out to be 7.8 h. For the same molecule, the Vd in series [1] (male, read-out: Vd) was determined as 3.7 L/kg.
In series [2], `CCc1c(F)ccc2cc3[nH]nc(C)c3c(-c3nc4c5c(nc(OC[C@@]67CCCN6C/C(=C\F)C7)nc5c3F)N3CCCOC[C@H]3CO4)c12` [Ex-7, (8aS)-5-(5-ethyl-6-fluoro-3-methyl-1H-benzo[f]indazol-4-yl)-4-fluoro-2-(((S,Z)-2-(fluoromethylene)tetrahydro-1H-pyrrolizin-7a(5H)-yl)methoxy)-8a,9,12,13-tetrahydro-8H,11H-7,10-dioxa-1,3,6,13a-tetraazanaphtho[1,8-ab]heptalene] yielded a CLp of 7.7 mL/min/kg, an MRT of 3.1 h and a Vd of 1.4 L/kg.
